Laboratory results: article PMC5218480 (PLoS ONE, 2017)

System: MV-4-11 cells
Assay: Gene expression microarray analysis (Affymetrix PrimeView) and GSEA
Format: cell-based, human
Parameters: RFU PODN (11730768_x_at) / Fold change /veh PODN (11730768_x_at) / RFU LINC00158 (11744669_a_at) / Fold change /veh LINC00158 (11744669_a_at) / RFU DUSP10 (11751237_a_at) / Fold change /veh DUSP10 (11751237_a_at) / RFU ID3 (11757404_x_at) / Fold change /veh ID3 (11757404_x_at) / RFU PLEKHG5 (11737974_s_at) / Fold change /veh PLEKHG5 (11737974_s_at) / RFU LRRC4B (11730491_at) / Fold change /veh LRRC4B (11730491_at) / RFU GIMAP4 (11747438_a_at) / Fold change /veh GIMAP4 (11747438_a_at) / RFU KRT8 (11758183_x_at) / Fold change /veh KRT8 (11758183_x_at) / RFU CNN1 (11734310_a_at) / Fold change /veh CNN1 (11734310_a_at) / RFU VPS37D (11726825_at) / Fold change /veh VPS37D (11726825_at) / RFU C10orf10 (11716522_x_at) / Fold change /veh C10orf10 (11716522_x_at) / RFU KIR2DL2 /// KIR2DL4 /// KIR2DL5A /// KIR2DL5B /// KIR2DS1 /// KIR2DS2 /// KIR2DS3 /// KIR2DS4 /// KIR3DL3 /// KIR3DL3 /// KIR3DS1 (11738374_at) / Fold change /veh KIR2DL2 /// KIR2DL4 /// KIR2DL5A /// KIR2DL5B /// KIR2DS1 /// KIR2DS2 /// KIR2DS3 /// KIR2DS4 /// KIR3DL3 /// KIR3DL3 /// KIR3DS1 (11738374_at) / RFU C1QL1 (11718748_at) / Fold change /veh C1QL1 (11718748_at) / RFU TMPRSS4 (11747572_a_at) / Fold change /veh TMPRSS4 (11747572_a_at) / RFU HAMP (11756126_x_at) / Fold change /veh HAMP (11756126_x_at) / RFU RNFT2 (11725882_a_at) / Fold change /veh RNFT2 (11725882_a_at) / RFU NR4A2 (11747474_a_at) / Fold change /veh NR4A2 (11747474_a_at) / RFU ABCC12 (11746883_a_at) / Fold change /veh ABCC12 (11746883_a_at) / RFU TMEM136 (11760407_x_at) / Fold change /veh TMEM136 (11760407_x_at) / RFU CLDN22 /// WWC2 (11732394_at) / Fold change /veh CLDN22 /// WWC2 (11732394_at) / RFU HLA-DPB1 (11760878_x_at) / Fold change /veh HLA-DPB1 (11760878_x_at) / RFU SPINT1 (11716480_a_at) / Fold change /veh SPINT1 (11716480_a_at) / RFU GAP43 (11754022_s_at) / Fold change /veh GAP43 (11754022_s_at) / RFU A4GNT (11735810_at) / Fold change /veh A4GNT (11735810_at) / RFU PRB3 (11715151_x_at) / Fold change /veh PRB3 (11715151_x_at) / RFU TUBB4B (11761932_at) / Fold change /veh TUBB4B (11761932_at) / RFU CAPN14 (11732068_a_at) / Fold change /veh CAPN14 (11732068_a_at) / RFU TMCC2 (11721928_a_at) / Fold change /veh TMCC2 (11721928_a_at) / RFU IRGQ (11745062_a_at) / Fold change /veh IRGQ (11745062_a_at) / RFU FAM174B (11720279_a_at) / Fold change /veh FAM174B (11720279_a_at) / RFU TMPRSS4 (11748680_a_at) / Fold change /veh TMPRSS4 (11748680_a_at) / RFU FAM212B (11763350_a_at) / Fold change /veh FAM212B (11763350_a_at) / RFU PLEKHG5 (11743358_a_at) / Fold change /veh PLEKHG5 (11743358_a_at) / RFU ZSCAN30 (11745921_a_at) / Fold change /veh ZSCAN30 (11745921_a_at) / RFU CMKLR1 (11741424_a_at) / Fold change /veh CMKLR1 (11741424_a_at) / RFU LOC101060620 /// MAPK8IP1 (11723275_at) / Fold change /veh LOC101060620 /// MAPK8IP1 (11723275_at) / RFU SPTSSB (11747773_x_at) / Fold change /veh SPTSSB (11747773_x_at) / RFU PRSS12 (11739890_at) / Fold change /veh PRSS12 (11739890_at) / RFU BIN1 (11741810_x_at) / Fold change /veh BIN1 (11741810_x_at) / RFU WNT11 (11732464_a_at) / Fold change /veh WNT11 (11732464_a_at) / RFU C10orf10 (11716521_a_at) / Fold change /veh C10orf10 (11716521_a_at) / RFU C5orf56 (11738089_at) / Fold change /veh C5orf56 (11738089_at) / RFU CYB561 (11721691_x_at) / Fold change /veh CYB561 (11721691_x_at) / RFU ANKRD19P (11752326_a_at) / Fold change /veh ANKRD19P (11752326_a_at) / RFU OR2T12 /// OR2T33 /// OR2T8 (11738714_s_at) / Fold change /veh OR2T12 /// OR2T33 /// OR2T8 (11738714_s_at) / RFU VCAN (11748164_a_at) / Fold change /veh VCAN (11748164_a_at) / RFU JSRP1 (11732532_at) / Fold change /veh JSRP1 (11732532_at) / RFU KRTAP10-11 (11738290_x_at) / Fold change /veh KRTAP10-11 (11738290_x_at) / RFU MYO3A (11730013_a_at) / Fold change /veh MYO3A (11730013_a_at) / RFU EBF3 (11725865_a_at) / Fold change /veh EBF3 (11725865_a_at) / RFU CAMK2N1 (11719241_x_at) / Fold change /veh CAMK2N1 (11719241_x_at) / RFU C5orf56 (11738088_a_at) / Fold change /veh C5orf56 (11738088_a_at) / RFU OLFML3 (11715873_a_at) / Fold change /veh OLFML3 (11715873_a_at) / RFU LOC100653217 /// NTM (11731650_a_at) / Fold change /veh LOC100653217 /// NTM (11731650_a_at) / RFU MAPK11 (11762145_a_at) / Fold change /veh MAPK11 (11762145_a_at) / RFU FIZ1 (11724087_x_at) / Fold change /veh FIZ1 (11724087_x_at) / RFU OASL (11726364_x_at) / Fold change /veh OASL (11726364_x_at) / RFU SOX15 (11748057_x_at) / Fold change /veh SOX15 (11748057_x_at) / RFU CD79A (11719716_a_at) / Fold change /veh CD79A (11719716_a_at) / RFU HIST1H1D (11736915_at) / Fold change /veh HIST1H1D (11736915_at) / RFU CASKIN2 (11723855_a_at) / Fold change /veh CASKIN2 (11723855_a_at) / RFU LOC730098 (11760151_x_at) / Fold change /veh LOC730098 (11760151_x_at) / RFU OR4N2 (11742367_at) / Fold change /veh OR4N2 (11742367_at) / RFU PRRT2 (11749266_a_at) / Fold change /veh PRRT2 (11749266_a_at) / RFU SNX32 (11753110_a_at) / Fold change /veh SNX32 (11753110_a_at) / RFU CDHR5 (11726645_a_at) / Fold change /veh CDHR5 (11726645_a_at) / RFU RCAN1 (11760418_a_at) / Fold change /veh RCAN1 (11760418_a_at) / RFU FAM167A (11723789_a_at) / Fold change /veh FAM167A (11723789_a_at) / RFU FAM26E (11764081_at) / Fold change /veh FAM26E (11764081_at) / RFU ISYNA1 (11749810_s_at) / Fold change /veh ISYNA1 (11749810_s_at) / RFU ACY1 (11761880_at) / Fold change /veh ACY1 (11761880_at) / RFU 11764098_at / Fold change /veh 11764098_at / RFU SAMD14 (11745864_x_at) / Fold change /veh SAMD14 (11745864_x_at) / RFU NPB (11741838_a_at) / Fold change /veh NPB (11741838_a_at) / RFU TMPRSS6 (11731388_a_at) / Fold change /veh TMPRSS6 (11731388_a_at) / RFU KRTAP10-2 (11738614_at) / Fold change /veh KRTAP10-2 (11738614_at) / RFU ARHGAP8 /// PRR5-ARHGAP8 (11727945_x_at) / Fold change /veh ARHGAP8 /// PRR5-ARHGAP8 (11727945_x_at) / RFU KRTAP5-7 /// NADSYN1 (11734609_at) / Fold change /veh KRTAP5-7 /// NADSYN1 (11734609_at) / RFU RASL12 (11751679_a_at) / Fold change /veh RASL12 (11751679_a_at) / RFU CDKN2B (11736163_a_at) / Fold change /veh CDKN2B (11736163_a_at) / RFU PRF1 (11729649_at) / Fold change /veh PRF1 (11729649_at) / RFU, ZNF638 /// ZNF638-IT1 / Fold change vs veh, ZNF638 /// ZNF638-IT1 / RFU, PANK3 / Fold change vs veh, PANK3 / RFU, SH3YL1 / Fold change vs veh, SH3YL1 / RFU, ZEB2 / Fold change vs veh, ZEB2 / RFU, NRIP1 / Fold change vs veh, NRIP1 / RFU, PTTG1IP / Fold change vs veh, PTTG1IP / RFU, CAPN2 / Fold change vs veh, CAPN2 / RFU, MED14 / Fold change vs veh, MED14 / RFU, SNORA58 / Fold change vs veh, SNORA58 / RFU, C1orf63 / Fold change vs veh, C1orf63 / RFU, LRRFIP1 / Fold change vs veh, LRRFIP1 / RFU, NDUFAF7 / Fold change vs veh, NDUFAF7 / RFU, SLC12A2 / Fold change vs veh, SLC12A2 / RFU, IBTK / Fold change vs veh, IBTK / RFU, ESF1 / Fold change vs veh, ESF1 / Fold change vs veh, TMEM50B / RFU, TAOK1 / Fold change vs veh, TAOK1 / RFU, ACBD3 / Fold change vs veh, ACBD3 / RFU, TMA16 / Fold change vs veh, TMA16 / RFU, RWDD3 / Fold change vs veh, RWDD3 / RFU, BCAT1 / Fold change vs veh, BCAT1 / RFU, EDEM3 / Fold change vs veh, EDEM3 / RFU, TMEM33 / Fold change vs veh, TMEM33 / RFU, WDR75 / Fold change vs veh, WDR75 / RFU, AHCTF1 / Fold change vs veh, AHCTF1 / RFU, TFRC / Fold change vs veh, TFRC / RFU, ZDHHC17 / Fold change vs veh, ZDHHC17 / RFU, NOM1 / Fold change vs veh, NOM1 / RFU, ARL8B / Fold change vs veh, ARL8B / RFU, ZBTB11 / Fold change vs veh, ZBTB11 / RFU, TAMM41 / Fold change vs veh, TAMM41 / RFU, KIAA1704 /// LOC100996395 / Fold change vs veh, KIAA1704 /// LOC100996395 / RFU, ING1 / Fold change vs veh, ING1 / RFU, TRMT61B / Fold change vs veh, TRMT61B / RFU, FUBP3 / Fold change vs veh, FUBP3 / RFU, TP53 / Fold change vs veh, TP53 / RFU, TNKS2 / Fold change vs veh, TNKS2 / RFU, ZFP14 / Fold change vs veh, ZFP14 / RFU, ACTR2 / Fold change vs veh, ACTR2 / RFU, PPP3R1 / Fold change vs veh, PPP3R1 / RFU, PIK3R1 / Fold change vs veh, PIK3R1 / RFU, HNRNPA1 / Fold change vs veh, HNRNPA1 / RFU, RNF170 / Fold change vs veh, RNF170 / RFU, ZNF28 / Fold change vs veh, ZNF28 / RFU, RNGTT / Fold change vs veh, RNGTT / RFU, OGT / Fold change vs veh, OGT / RFU, BRD1 / Fold change vs veh, BRD1 / RFU, MARS / Fold change vs veh, MARS / RFU, ZNF655 / Fold change vs veh, ZNF655 / RFU, FAHD1 / Fold change vs veh, FAHD1 / RFU, BDP1 / Fold change vs veh, BDP1 / RFU, LRRCC1 / Fold change vs veh, LRRCC1 / RFU, ARID1A / Fold change vs veh, ARID1A / RFU, ZNF146 / Fold change vs veh, ZNF146 / RFU, ZNF330 / Fold change vs veh, ZNF330 / RFU, GPN3 / Fold change vs veh, GPN3 / RFU, C9orf123 / Fold change vs veh, C9orf123 / RFU, N4BP2L2 / Fold change vs veh, N4BP2L2 / RFU, ARFIP1 / Fold change vs veh, ARFIP1 / RFU, FAM179B / Fold change vs veh, FAM179B / RFU, BCL10 / Fold change vs veh, BCL10 / RFU, UHRF1BP1L / Fold change vs veh, UHRF1BP1L / RFU, BET1 / Fold change vs veh, BET1 / RFU, CNOT2 / Fold change vs veh, CNOT2 / RFU, ZNF268 / Fold change vs veh, ZNF268 / Fold change vs veh, ZNF507 / RFU, DGCR2 / Fold change vs veh, DGCR2 / RFU, WDSUB1 / Fold change vs veh, WDSUB1 / Fold change vs veh, HSP90B1 /// MIR3652 / RFU, ADSS / Fold change vs veh, ADSS / RFU, GK / Fold change vs veh, GK / RFU, ZNF148 / Fold change vs veh, ZNF148 / RFU, TAF9 / Fold change vs veh, TAF9 / RFU, SLC1A5 / Fold change vs veh, SLC1A5 / RFU, SLMO2 / Fold change vs veh, SLMO2 / RFU, ABCC4 / Fold change vs veh, ABCC4 / RFU, LOC101060439 /// RAP1B / Fold change vs veh, LOC101060439 /// RAP1B / RFU, RFX7 / Fold change vs veh, RFX7 / RFU, GTPBP10 / Fold change vs veh, GTPBP10 / RFU, CNEP1R1 / Fold change vs veh, CNEP1R1 / RFU, BIVM-ERCC5 /// ERCC5 / Fold change vs veh, BIVM-ERCC5 /// ERCC5 / RFU, ILF3 / Fold change vs veh, ILF3 / RFU 11762660_at / Fold change /veh 11762660_at / RFU VCAN (11757783_s_at) / Fold change /veh VCAN (11757783_s_at) / RFU DDX43 (11728927_at) / Fold change /veh DDX43 (11728927_at) / RFU KRT8 (11758188_x_at) / Fold change /veh KRT8 (11758188_x_at) / RFU NKD1 (11759106_at) / Fold change /veh NKD1 (11759106_at) / RFU SRD5A1 (11742802_a_at) / Fold change /veh SRD5A1 (11742802_a_at) / RFU TPSAB1 /// TPSB2 (11721975_s_at) / Fold change /veh TPSAB1 /// TPSB2 (11721975_s_at) / RFU GSTM3 (11746129_a_at) / Fold change /veh GSTM3 (11746129_a_at) / RFU IL23R (11737362_x_at) / Fold change /veh IL23R (11737362_x_at) / RFU TMEM51 (11727254_a_at) / Fold change /veh TMEM51 (11727254_a_at) / RFU PIWIL2 (11732686_x_at) / Fold change /veh PIWIL2 (11732686_x_at) / RFU ORM1 (11744905_x_at) / Fold change /veh ORM1 (11744905_x_at) / RFU CCDC152 (11743942_at) / Fold change /veh CCDC152 (11743942_at) / RFU ECM1 (11717891_a_at) / Fold change /veh ECM1 (11717891_a_at) / RFU IL23R (11748794_a_at) / Fold change /veh IL23R (11748794_a_at) / RFU TNFAIP8L3 (11732012_x_at) / Fold change /veh TNFAIP8L3 (11732012_x_at) / RFU MBOAT4 (11741988_at) / Fold change /veh MBOAT4 (11741988_at) / RFU 11764193_at / Fold change /veh 11764193_at / RFU TMEM53 (11763286_at) / Fold change /veh TMEM53 (11763286_at) / RFU MAGEB2 (11727129_at) / Fold change /veh MAGEB2 (11727129_at) / RFU TMEM200A (11744735_a_at) / Fold change /veh TMEM200A (11744735_a_at) / RFU CCDC152 (11751479_a_at) / Fold change /veh CCDC152 (11751479_a_at) / RFU FAM211A (11726209_a_at) / Fold change /veh FAM211A (11726209_a_at) / RFU RGS16 (11746705_a_at) / Fold change /veh RGS16 (11746705_a_at) / RFU VCAN (11755009_s_at) / Fold change /veh VCAN (11755009_s_at) / RFU RHOB (11743442_s_at) / Fold change /veh RHOB (11743442_s_at) / RFU RGS16 (11720943_a_at) / Fold change /veh RGS16 (11720943_a_at) / RFU RGS16 (11720944_at) / Fold change /veh RGS16 (11720944_at) / RFU, VPS4B / Fold change vs veh, VPS4B / RFU, CREB1 / Fold change vs veh, CREB1 / RFU, DNAJC13 / Fold change vs veh, DNAJC13 / RFU, GNAQ / Fold change vs veh, GNAQ / RFU, CDK5R1 / Fold change vs veh, CDK5R1 / RFU, ZRANB3 / Fold change vs veh, ZRANB3 / RFU, CUL4A / Fold change vs veh, CUL4A / RFU, CCNY / Fold change vs veh, CCNY / RFU, UFL1 / Fold change vs veh, UFL1 / RFU, COG3 / Fold change vs veh, COG3 / RFU, DIAPH2 / Fold change vs veh, DIAPH2 / RFU, SKA2 / Fold change vs veh, SKA2 / RFU, AFF3 / Fold change vs veh, AFF3 / RFU, LMF1 / Fold change vs veh, LMF1 / RFU, IPO11 / Fold change vs veh, IPO11 / RFU, DFFB / Fold change vs veh, DFFB / RFU, FOXP1 / Fold change vs veh, FOXP1 / RFU, CARD8 / Fold change vs veh, CARD8 / RFU, STRN3 / Fold change vs veh, STRN3 / RFU, ADK / Fold change vs veh, ADK / RFU, RASSF2 / Fold change vs veh, RASSF2 / RFU, WIPF1 / Fold change vs veh, WIPF1 / RFU, LARP1B / Fold change vs veh, LARP1B / RFU, RASA1 / Fold change vs veh, RASA1 / RFU, RB1 / Fold change vs veh, RB1 / RFU, PPFIA1 / Fold change vs veh, PPFIA1 / RFU, MAT2A / Fold change vs veh, MAT2A / RFU, CCT5 / Fold change vs veh, CCT5 / RFU, WDR92 / Fold change vs veh, WDR92 / RFU, CUX1 / Fold change vs veh, CUX1 / RFU, TTC7A / Fold change vs veh, TTC7A / RFU, TMEM135 / Fold change vs veh, TMEM135 / RFU, DEPTOR / Fold change vs veh, DEPTOR / RFU, CPM / Fold change vs veh, CPM / RFU, DNAJB6 / Fold change vs veh, DNAJB6 / RFU, CACNA2D3 / Fold change vs veh, CACNA2D3 / RFU, DTX4 / Fold change vs veh, DTX4 / RFU, TFCP2 / Fold change vs veh, TFCP2 / RFU, GMCL1 /// GMCL1P1 / Fold change vs veh, GMCL1 /// GMCL1P1 / RFU, AEBP2 / Fold change vs veh, AEBP2 / RFU, SNHG1 /// SNORD22 /// SNORD25 /// SNORD26 /// SNORD27 /// SNORD28 /// SNORD29 /// SNORD31 / Fold change vs veh, SNHG1 /// SNORD22 /// SNORD25 /// SNORD26 /// SNORD27 /// SNORD28 /// SNORD29 /// SNORD31 / Fold change (Aza/veh), C12orf56 (ProbeSet 11735607_a_at) / Fold change (ACY-1035/veh), C12orf56 (ProbeSet 11735607_a_at) / Fold change (Aza/veh), FGFR1OP (ProbeSet 11751329_s_at) / Fold change (ACY-1035/veh), FGFR1OP (ProbeSet 11751329_s_at) / Fold change (Aza/veh), VPS36 (ProbeSet 11739960_a_at) / Fold change (ACY-1035/veh), VPS36 (ProbeSet 11739960_a_at) / RFU SYPL1 (11715823_x_at) / Fold change /veh SYPL1 (11715823_x_at) / RFU IGFBP7 (11715501_s_at) / Fold change /veh IGFBP7 (11715501_s_at) / RFU REEP3 (11722064_at) / Fold change /veh REEP3 (11722064_at) / RFU IGLL1 (11728026_x_at) / Fold change /veh IGLL1 (11728026_x_at): dose or concentration left out as unconfirmed
Details: MV-4-11 cells, 48 hours

## Nc1ccc(-c2cccs2)cc1NC(=O)c1ccc2c(c1)cc(C1CC1)n2CCN1CCOCC1 [ACY-1035]
  Fold change /veh IL23R (11748794_a_at): 0.98
